Experimental data reported in patent US11034673B2, “(S)-N-(3-(6-isopropoxypyridin-3-yl)-1H-indazol-5-yl)-1-(2-(4-(4-(1-methyl-1H-1,2,4-triazol-3-yl)phenyl)-3,6-dihydropyridin-1(2H)-yl)-2-oxoethyl)-3-(methylthio)pyrrolidine-3-carboxamide compositions for pharmaceutical preparations” (Merck Sharp & Dohme Corp., priority 2014, dated 2021).

Experiment: solubility of crystalline form
Assay type: physicochemical

solubility: poor solubility
SMILES: CS[C@@]1(C(=O)Nc2ccc3[nH]nc(-c4ccc(OC(C)C)nc4)c3c2)CCN(CC(=O)N2CC=C(c3ccc(-c4ncn(C)n4)cc3)CC2)C1 [crystalline hydrate Form 2, (S)—N-(3-(6-isopropoxypyridin-3-yl)-1H-indazol-5-yl)-1-(2-(4-(4-(1-methyl-1H-1,2,4-triazol-3-yl)phenyl)-3,6-dihydropyridin-1(2H)-yl)-2-oxoethyl)-3-(methylthio)pyrrolidine-3-carboxamide]
